Results on seven compounds are retold here after patent US20250313569A1, “Pharmaceutical Compounds And Compositions As Modulators Of MAS-Related G-Protein Receptor X2” (Enanta Pharmaceuticals, Inc., priority 2024, published 2025).

Experiment [1] addresses T1, human MRGPRX2 (Homo sapiens, UniProt Q96LB1).
T1 construct: expressed in transfected cells; host or cells: HEK293
T1 sequence (Q96LB1 1-330): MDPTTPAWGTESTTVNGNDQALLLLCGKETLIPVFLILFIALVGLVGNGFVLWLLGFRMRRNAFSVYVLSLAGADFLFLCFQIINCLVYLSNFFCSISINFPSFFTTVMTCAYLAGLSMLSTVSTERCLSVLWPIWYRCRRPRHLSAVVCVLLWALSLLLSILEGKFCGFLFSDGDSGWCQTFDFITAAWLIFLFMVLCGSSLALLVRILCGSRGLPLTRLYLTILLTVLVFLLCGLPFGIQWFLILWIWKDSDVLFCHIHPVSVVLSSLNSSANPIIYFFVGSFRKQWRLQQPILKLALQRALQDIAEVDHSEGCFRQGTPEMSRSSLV
In words: MRGPRX2 IP-1 Gq HTRF assay in HEK293 cells stably expressing human MRGPRX2, Cortistatin-14 at EC75. Type of experiment: cell-based. The conditions noted are these: 2 hours at 37° C., cellular IP-1. How it is done: HEK293 cells stably expressing human MRGPRX2 were grown in Dulbecco's Modified Eagle Medium (DMEM) supplemented with 10% fetal bovine serum (FBS), 1% Glutamax, and 1 μg/mL of puromycin. Cells were maintained in a 37° C., 5% CO2 humidified incubator.
Cells were plated in a 384-well assay plate at a density of 20,000 cells per well overnight. Compounds were solubilized at 10 mM in DMSO and added as a 10-point curve using an ECHO acoustic liquid handler. On the day of the assay, Cortistatin-14 was diluted in assay buffer (provided by IP-One-Gq-HTRF kit purchased from Cisbio, 62IPAPEJ) and added to the assay plate at a final concentration corresponding to the predetermined EC75. Plates were incubated at 37° C. for 2 hours prior to addition of HTRF detection reagents per the manufacturer's instructions. The plates were read on a Perkin Elmer Envision plate reader. The HTRF ratio and cellular IP-1 levels were calculated. XLfit was used to calculate an EC50 value for each compound using a 4-parameter logistic curve fitting model. EC50 ranges are reported as follows: A<100 nM; B 0.1-1 μM; C>1 μM.

Experiment [2] deals with T2, MRGPRX2 LAD2 (Homo sapiens, UniProt Q96LB1).
T2 construct: host or cells: LAD2 human mast cells
T2 sequence (Q96LB1 1-330): T1 sequence (Q96LB1 1-330)
Kind of experiment: LAD2 β-hexosaminidase release assay (degranulation), Cortistatin-14 at EC75. Type of experiment: cell-based. The conditions noted are these: LAD2 cells; 1 hour compound incubation, Cortistatin-14 at EC75 for 30 minutes; percent degranulation (β-hexosaminidase).

In the case of `COc1ccc(C(=O)N[C@H]2C[C@@H](Nc3cc(C(F)(F)F)nc4ccc(Cl)cc34)CN(C(C)=O)C2)cc1` [Example 25], the EC50 in experiment [1] and in experiment [2] was under 0.1 µM throughout.
As to `CC(=O)N1C[C@@H](NC(=O)c2cnn(CC(F)(F)F)c2)C[C@@H](Nc2cc(C(F)(F)F)nc3ccc(Cl)cc23)C1` [Example 29], the EC50 in experiment [1] and in experiment [2] was under 0.1 µM throughout.
Turning to `CC(=O)N1C[C@@H](NC(=O)c2cnn(C)c2)C[C@@H](Nc2cc(C(F)(F)F)nc3ccc(Cl)cc23)C1` [Example 30], the 50% effective concentration (EC50) in experiment [1] and in experiment [2] was under 0.1 µM in each case.
Take `CC(=O)N1C[C@@H](NC(=O)c2cnn(C3CC3)c2)C[C@@H](Nc2cc(C(F)(F)F)nc3ccc(Cl)cc23)C1` [Example 32]: the EC50 in experiment [1] and in experiment [2] was 0.1 to 1 µM each time.
Regarding `CC(=O)N1C[C@@H](NC(=O)c2cccc(C(C)(C)O)c2)C[C@@H](Nc2cc(C(F)(F)F)nc3ccc(Cl)cc23)C1` [Example 41], the EC50 in experiment [1] was 0.1 to 1 µM; in experiment [2], under 0.1 µM.
As to `CC(=O)N1C[C@@H](NC(=O)c2cccc(C(F)F)c2)C[C@@H](Nc2cc(C(F)(F)F)nc3ccc(Cl)cc23)C1` [Example 42], the EC50 in experiment [1] and in experiment [2] was under 0.1 µM each time.
On to `CC(=O)N1C[C@@H](NC(=O)c2cccc(NS(=O)(=O)C(F)(F)F)c2)C[C@@H](Nc2cc(C(F)(F)F)nc3ccc(Cl)cc23)C1` [Example 43], for which the EC50 was 0.1 to 1 µM in experiment [1] and under 0.1 µM in experiment [2].
